“And” between values parts separate entries of the source, which are not always exact repeats. Equal entries are not always repeated.
What was measured:
[1] = test system: nicotinic acetylcholine receptors; design: method as in PMID 1815137; settings: cited from earlier work
α7 nicotinic receptor = biological target: T1, α7 nicotinic receptor (Homo sapiens, UniProt P36544); test: Two-electrode voltage-clamp recording of ACh-induced currents in X. laevis oocytes expressing recombinant α7 nicotinic receptor; type: cell-based; settings: for fold higher potency for blockade of α7 than of α4β2 receptor: ratio of IC50 values, α7 over α4β2
T1 construct: expressed in transfected cells; host or cells: Xenopus laevis oocytes (nuclear cDNA injection)
T1 sequence (P36544 23-502): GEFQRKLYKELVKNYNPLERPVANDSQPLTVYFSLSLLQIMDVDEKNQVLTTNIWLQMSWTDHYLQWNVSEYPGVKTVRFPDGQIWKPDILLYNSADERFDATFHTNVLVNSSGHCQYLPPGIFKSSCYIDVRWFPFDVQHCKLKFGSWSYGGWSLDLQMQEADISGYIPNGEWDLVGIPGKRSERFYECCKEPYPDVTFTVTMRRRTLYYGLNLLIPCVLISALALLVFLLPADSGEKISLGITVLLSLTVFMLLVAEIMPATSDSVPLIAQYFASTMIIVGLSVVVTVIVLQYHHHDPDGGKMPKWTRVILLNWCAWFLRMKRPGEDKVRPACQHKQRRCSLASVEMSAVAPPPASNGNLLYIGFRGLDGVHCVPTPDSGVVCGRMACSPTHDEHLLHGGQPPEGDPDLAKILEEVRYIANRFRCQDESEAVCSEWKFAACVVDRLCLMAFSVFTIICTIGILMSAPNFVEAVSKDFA
Procedure: (§1) Figure 1 Inhibitory effect of (-)-231C on ACh-induced currents in X. laevis oocytes expressing recombinant nicotinic receptors. Currents were recorded in the voltage-clamp mode at -60 mV. Concentrations of ACh used were 1 μM for the α4β2 receptor and 100 μM for the α7 receptor. For test responses, oocytes were preincubated with (-)-231C for 3 min and then exposed to ACh with (-)-231C. A, representative traces showing the ACh-elicited currents in the absence and presence of (-)-231C (3 μM). Horizontal bars indicate the period of perfusion with ACh for 5 s. Vertical scale bars represent 0.5 μA on the α4β2 receptor, and 0.1 μA on the α7 receptor. B, concentration-response curves for (-)-231C on recombinant nicotinic receptors. Current responses to ACh in the presence of (-)-231C in each oocyte were normalized to the ACh responses (control responses) recorded in the same oocytes. Values represent the mean ± S.E.M. for five to six separate experiments.
as §1, with “Figure 2” for “Figure 1”, “of (-)-221I” for “of (-)-231C”, “with (-)-221I” for “with (-)-231C”, “with (-)-221I.” for “with (-)-231C.”, “for (-)-221I” for “for (-)-231C”, “five” for “five to six”
as §1, with “Figure 3” for “Figure 1”, “of (-)-epi-193E” for “of (-)-231C”, “with (-)-epi-193E” for “with (-)-231C”, “with (-)-epi-193E.” for “with (-)-231C.”, “for (-)-epi-193E” for “for (-)-231C”, “five” for “five to six”
(§2) Xenopus laevis oocytes were prepared as described previously. In brief, stage V-VI oocytes were isolated and microinjected with cDNAs encoding nicotinic receptor subunit into the nucleus. The α7 subunit cDNA was injected alone, whereas the mixture of α4 and β2 subunit cDNAs was injected in a ratio of 1:1. Oocytes were cultured at 19 °C for 3-7 days. An oocyte was placed in a tube-like chamber in which Ringer’s solution (82.5 mM NaCl, 2.5 mM KCl, 2.5 mM CaCl2, 1 mM MgCl2, and 5 mM HEPES, pH 7.4) containing 1 µM atropine was perfused by gravity (15 ml/min). Current responses were recorded under two-electrode voltage-clamp method. To apply a pulse of acetylcholine (ACh) to the oocyte, the perfusion fluid was switched to solution containing ACh, using a three-way Teflon solenoid valve (Parker Hannifin Corp., General Valve Division, Fairfield, NJ) controlled by a PC computer with pClamp7 software (Axon Instruments, Union City, CA). […]

α4β2 nicotinic receptor [2] = biological target: T2, α4β2 nicotinic receptor (Homo sapiens, UniProt P17787+P43681); test: Two-electrode voltage-clamp recording of ACh-induced currents in X. laevis oocytes expressing recombinant α4β2 nicotinic receptor; type: cell-based
T2 construct: expressed in transfected cells; host or cells: Xenopus laevis oocytes (nuclear cDNA injection)
T2 sequence (P43681 29-627 limits assumed): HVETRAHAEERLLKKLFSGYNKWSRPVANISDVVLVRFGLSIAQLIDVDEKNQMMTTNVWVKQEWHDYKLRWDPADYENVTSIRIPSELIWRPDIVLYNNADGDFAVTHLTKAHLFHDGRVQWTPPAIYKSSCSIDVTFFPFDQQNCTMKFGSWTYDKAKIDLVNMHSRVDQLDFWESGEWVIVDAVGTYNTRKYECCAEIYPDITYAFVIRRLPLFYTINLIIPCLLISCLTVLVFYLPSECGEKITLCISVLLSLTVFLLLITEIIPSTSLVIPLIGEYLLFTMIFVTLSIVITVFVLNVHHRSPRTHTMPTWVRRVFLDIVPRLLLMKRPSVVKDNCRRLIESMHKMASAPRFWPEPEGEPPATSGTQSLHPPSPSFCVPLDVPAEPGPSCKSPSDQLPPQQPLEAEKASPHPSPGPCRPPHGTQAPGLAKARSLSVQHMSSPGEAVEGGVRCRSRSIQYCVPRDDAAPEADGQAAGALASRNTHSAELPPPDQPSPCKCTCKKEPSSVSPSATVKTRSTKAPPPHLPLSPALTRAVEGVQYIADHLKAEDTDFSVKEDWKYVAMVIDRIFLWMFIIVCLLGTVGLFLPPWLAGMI
T2 sequence (P17787 26-502): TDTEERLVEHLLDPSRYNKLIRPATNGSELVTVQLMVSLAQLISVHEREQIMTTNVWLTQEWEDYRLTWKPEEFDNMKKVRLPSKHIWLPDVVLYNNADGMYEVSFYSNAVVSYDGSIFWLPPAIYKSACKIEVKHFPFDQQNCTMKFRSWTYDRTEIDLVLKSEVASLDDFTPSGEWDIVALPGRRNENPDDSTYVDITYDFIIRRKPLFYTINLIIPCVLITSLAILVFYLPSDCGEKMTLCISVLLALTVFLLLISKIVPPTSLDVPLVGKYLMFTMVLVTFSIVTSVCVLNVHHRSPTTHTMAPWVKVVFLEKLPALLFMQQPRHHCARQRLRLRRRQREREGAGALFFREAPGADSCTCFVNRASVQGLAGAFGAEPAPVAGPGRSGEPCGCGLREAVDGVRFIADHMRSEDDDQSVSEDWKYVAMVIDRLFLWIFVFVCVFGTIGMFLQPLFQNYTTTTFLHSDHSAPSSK
Procedure: as §1
as §1, with “Figure 2” for “Figure 1”, “of (-)-221I” for “of (-)-231C”, “with (-)-221I” for “with (-)-231C”, “with (-)-221I.” for “with (-)-231C.”, “for (-)-221I” for “for (-)-231C”, “five” for “five to six”
as §1, with “Figure 3” for “Figure 1”, “of (-)-epi-193E” for “of (-)-231C”, “with (-)-epi-193E” for “with (-)-231C”, “with (-)-epi-193E.” for “with (-)-231C.”, “for (-)-epi-193E” for “for (-)-231C”, “five” for “five to six”
as §2

α4β2 nicotinic receptor [3] = biological target: T2, α4β2 nicotinic receptor; design: method as in PMID 15258256; settings: cited from earlier work

| Structure (SMILES) | mode of action at nicotinic receptors [1] | IC50 (α7 nicotinic receptor) | IC50 (α4β2 nicotinic receptor [2]) | fold higher potency for blockade of α7 than of α4β2 receptor (α7 nicotinic receptor) | further results |
| --- | --- | --- | --- | --- | --- |
| CCCCC[C@@H]1CC[C@@H](C)[C@@H]2CCCN12 [(-)-209B, (5S,8R,9S)-(-)-8-Methyl-5-pentyloctahydroindolizine] | noncompetitive nicotinic blockers |  |  |  |  |
| C#C/C=C\CCC[C@@H]1CC[C@@H](C)[C@@H]2CCCN12 [(-)-231C, (5R,8R,9S)-(-)-5-Hept-4-en-6-ynyl-8-methyloctahydroindolizine] |  | 10.7 µM | 1.5 µM |  | ACh-elicited responses (α7 nicotinic receptor; 3 μM compound, oocytes expressing α7 receptor): not strongly affected; peak amplitude of ACh-elicited currents (α4β2 nicotinic receptor [2]; 3 μM compound, oocytes expressing α4β2 receptor): greatly decreased; fold higher sensitivity/potency for blockade of α4β2 than of α7 receptor (α4β2 nicotinic receptor [2]; ratio of IC50 values, α4β2 over α7): 7.0 fold and 6- to 7 fold |
| CCC=CCC1CCC(CC)C2CCCN12 (single isomer, unassigned; (-)) [(-)-221I] |  | 4.4 µM | 23.1 µM | 5.3 fold |  |
| CC/C=C\CCC[C@@H]1CC[C@@H](C)[C@@H]2CCCN12 [(-)-235B", (5R,8R,9S)-(-)-5-Hept-4-enyl-8-methyloctahydroindolizine] | noncompetitive nicotinic blockers |  |  |  | selectivity for blockade of α4β2 over α7 receptor (α4β2 nicotinic receptor [3]; previous data): 6- to 7 fold; effect at the α4β2 nicotinic receptor (α4β2 nicotinic receptor [3]; several nicotinic receptor subtypes tested): selective and potent blocking effects; potency at α4β2 receptor compared with dihydro-β-erythroidine (α4β2 nicotinic receptor [3]; versus classical α4β2 competitive antagonist): comparable; potency in blocking the α4β2 receptor relative to (-)-231C (α4β2 nicotinic receptor [2]; fold greater than (-)-231C, previous (ref 3) versus present data): approximately 20 fold |
| C=CCC1CCC(CC)C2CCCN12 (single isomer, unassigned; (-)) [(-)-epi-193E] |  | 9.1 µM | 18 µM | 2.0 fold |  |

Reference: article PMC2164953, “Flexible synthesis of poison-frog alkaloids of the 5,8-disubstituted indolizidine-class. II: Synthesis of (-)-209B, (-)-231C, (-)-233D, (-)-235B", (-)-221I, and an epimer of 193E and pharmacological effects at neuronal nicotinic acetylcholine receptors” (Beilstein Journal of Organic Chemistry, 2007)
